Data: patent US7651978B2, “Selective herbicides based on a substituted phenylsulphonylaminocarbonyl-triazolinone” (Arysta LifeScience North America, LLC, priority 1998, dated 2010)
Where a name gives a salt, the structure may show the parent alone.

What was measured:
Experiment in all cases: Post-emergence test/greenhouse
Format in all cases: in vivo
Setaria = settings: after three weeks
Experimental: (§1) Post-Emergence Test/Greenhouse [table] To produce a suitable preparation of active compound, 1 part by weight of active compound is mixed with the stated amount of solvent, the stated amount of emulsifier is added and the concentrate is diluted with water to the desired concentration. Test plants which have a height of 5-15 cm are sprayed with the preparation of active compound such that the particular amounts of active compound desired are applied per unit area. The concentration of the spray liquor is chosen so that the particular amounts of active compound desired are applied in 500 ml of water/ha. After three weeks, the degree of damage to the plants is assessed in % damage in comparison to the development of the untreated control. The figures denote: • 0%=no effect (like untreated control) • 100%=total destruction

Avena = settings: after three weeks
Experimental: as §1

Alopecurus = settings: 504 h, after three weeks, read-out: degree of damage, Alopecurus
Experimental: as §1

Agropyron = settings: 60 g ai./ha, after three weeks
Experimental: as §1

Wheat = settings: wheat, in vivo, 3 weeks
Experimental: as §1

Bromus = settings: 60 g ai./ha, after three weeks
Experimental: as §1

Lolium = settings: 60 g ai./ha, after three weeks
Experimental: as §1

Veronica = settings: 60 g ai./ha, after three weeks
Experimental: as §1

Question: How did the “degree of damage, Setaria” value (Setaria; 60 g ai./ha) turn out when COc1nn(C(=O)NS(=O)(=O)c2ccccc2OC(F)(F)F)c(=O)n1C [(I)-Na-salt, 2-(2-trifluoromethoxy-phenylsulphonylaminocarbonyl)-4-methyl-5-methoxy-2,4-dihydro-3H-1,2,4-triazol-3-one] was run?
Answer: Its value is 100%.

Question: What about the “degree of damage, Setaria” value (Setaria; 125 g ai./ha) of the same compound?
Answer: The value was 95%.

Question: And the “degree of damage, Avena” value (Avena; 60 g ai./ha)?
Answer: The value was 70%.

Question: What about the “degree of damage, Avena” value (Avena; 125 g ai./ha) of the same compound?
Answer: Its value is 90%.

Question: What about the pest or weed control at 60 g/ha (Alopecurus; 60 g ai./ha) of the same compound?
Answer: Its pest or weed control at 60 g/ha is 80%.

Question: And the pest or weed control at 125 g/ha (Alopecurus; 125 g ai./ha)?
Answer: Its pest or weed control at 125 g/ha is 90%.

Question: What about the “degree of damage, Agropyron” value (Agropyron) of the same compound?
Answer: The value was 70%.

Question: What about the “degree of damage, Wheat” value (Wheat) of the same compound?
Answer: Its value is 0%.

Question: What about the “degree of damage, Bromus” value (Bromus) of the same compound?
Answer: The value was 90%.

Question: What about the “degree of damage, Lolium” value (Lolium) of the same compound?
Answer: The value was 90%.

Question: And the “degree of damage, Veronica” value (Veronica)?
Answer: Its value is 90%.
